Measurements: PMC12039745, “Structure and inhibition of diaminopimelic acid epimerase by slow‐binding α‐methyl amino acids” (Protein Science : A Publication of the Protein Society, 2025)

T1: DAP epimerase (DapF) (Arabidopsis thaliana, UniProt Q9LFG2)
T1 sequence (Q9LFG2 52-362): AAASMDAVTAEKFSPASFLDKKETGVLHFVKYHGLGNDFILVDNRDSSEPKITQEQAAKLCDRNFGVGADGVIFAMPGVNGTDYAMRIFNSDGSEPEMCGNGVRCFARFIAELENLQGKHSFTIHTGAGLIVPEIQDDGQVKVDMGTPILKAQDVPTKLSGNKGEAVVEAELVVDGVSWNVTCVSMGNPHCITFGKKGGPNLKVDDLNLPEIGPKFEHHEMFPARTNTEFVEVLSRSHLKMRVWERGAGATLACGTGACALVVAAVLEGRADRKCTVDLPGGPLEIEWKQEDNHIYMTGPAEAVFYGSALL

B1: DAP epimerase (DapF) (Arabidopsis thaliana) (protein)
chain: T1 sequence (Q9LFG2 52-362)

What was measured:
[1] = target: T1, DAP epimerase (DapF); assay: DAP dehydrogenase-coupled assay at […] inhibitor, time-dependent pre-incubation; format: biochemical
[2] = target: T2, DAP epimerase (DapF); assay: DAP dehydrogenase-coupled assay, […] h pre-incubation, slow-binding; format: biochemical, Anabaena sp. YBS01
T2 construct: C-terminal hexahistidine tag

[3] = target: T2, DAP epimerase (DapF); assay: X-ray crystal structure ([…] Å); DAP dehydrogenase-coupled inhibition assay after […] h incubation; format: biochemical, Anabaena sp. YBS01
[4] = substrate: N[C@@H](CCC[C@H](N)C(=O)O)C(=O)O; assay: purified protein

Molecule	DAP dehydrogenase-coupled assay at 250 μM inhibitor, time-dependent pre-incubati [1]	IC50 [2] [µM]	IC50 [3] [µM]	Km [4] [µM]
C[C@](N)(CCC[C@H](N)C(=O)O)C(=O)O [L,L-α-methylDAP]	A. thaliana DapF behaved similarly to Anabaena DapF and activity decreased with increasing length of pre‐incubation	120		
C[C@@](N)(CCC[C@H](N)C(=O)O)C(=O)O [D,L-α-methylDAP, (2R,6S)‐2,6‐diamino‐2‐methylheptanedioic acid]	A. thaliana DapF behaved similarly to Anabaena DapF and activity decreased with increasing length of pre‐incubation		160	
B1				68
